From ChEMBL document CHEMBL4627246, “Pyroglutamide-Based P2X7 Receptor Antagonists Targeting Inflammatory Bowel Disease” (J Med Chem, 2020)

Key:
Format in all cases: cell-based
TK-10 = test: Cytotoxicity against human TK10 cells assessed as effect on cell growth at 10 uM incubated for 48 hrs by sulforhodamine B assay; conditions: tk-10, 48 h
SNB-19 = test: Cytotoxicity against human SNB19 cells assessed as effect on cell growth at 10 uM incubated for 48 hrs by sulforhodamine B assay; conditions: snb-19, 48 h
NCI-H522 = test: Cytotoxicity against human NCI-H522 cells assessed as effect on cell growth at 10 uM incubated for 48 hrs by sulforhodamine B assay; conditions: nci-h522, 48 h
HOP-62 = test: Cytotoxicity against human HOP62 cells assessed as effect on cell growth at 10 uM incubated for 48 hrs by sulforhodamine B assay; conditions: hop-62, 48 h
DU-145 = test: Cytotoxicity against human DU145 cells assessed as effect on cell growth at 10 uM incubated for 48 hrs by sulforhodamine B assay; conditions: du-145, 48 h
K562 = test: Cytotoxicity against human K562 cells assessed as effect on cell growth at 10 uM incubated for 48 hrs by sulforhodamine B assay; conditions: k562, 48 h
MOLT-4 = test: Cytotoxicity against human MOLT4 cells assessed as effect on cell growth at 10 uM incubated for 48 hrs by sulforhodamine B assay; conditions: molt-4, 48 h
Hs-578T = test: Cytotoxicity against human Hs 578T cells assessed as effect on cell growth at 10 uM incubated for 48 hrs by sulforhodamine B assay
SK-OV-3 = test: Cytotoxicity against human SKOV3 cells assessed as effect on cell growth at 10 uM incubated for 48 hrs by sulforhodamine B assay; conditions: sk-ov-3, 48 h
M14 = test: Cytotoxicity against human M14 cells assessed as effect on cell growth at 10 uM incubated for 48 hrs by sulforhodamine B assay; conditions: m14, 48 h
UO-31 = test: Cytotoxicity against human UO31 cells assessed as effect on cell growth at 10 uM incubated for 48 hrs by sulforhodamine B assay; conditions: uo-31, 48 h
UACC-62 = test: Cytotoxicity against human UACC62 cells assessed as effect on cell growth at 10 uM incubated for 48 hrs by sulforhodamine B assay; conditions: uacc-62, 48 h
HCT-15 = test: Cytotoxicity against human HCT15 cells assessed as effect on cell growth at 10 uM incubated for 48 hrs by sulforhodamine B assay; conditions: hct-15, 48 h
MDA-MB-435 = test: Cytotoxicity against human MDA-MB-435 cells assessed as effect on cell growth at 10 uM incubated for 48 hrs by sulforhodamine B assay; conditions: mda-mb-435, 48 h
CAKI-1 = test: Growth inhibition of human Caki1 cells assessed as growth percentage at 10 uM incubated for 48 hrs by sulforhodamine B assay; conditions: caki-1, 48 h
EKVX = test: Cytotoxicity against human EKVX cells assessed as effect on cell growth at 10 uM incubated for 48 hrs by sulforhodamine B assay
MCF7 = test: Cytotoxicity against human MCF7 cells assessed as effect on cell growth at 10 uM incubated for 48 hrs by sulforhodamine B assay; conditions: mcf7, 48 h
SK-MEL-5 = test: Cytotoxicity against human SK-MEL-5 cells assessed as effect on cell growth at 10 uM incubated for 48 hrs by sulforhodamine B assay; conditions: sk-mel-5, 48 h
SK-MEL-2 = test: Cytotoxicity against human SK-MEL-2 cells assessed as effect on cell growth at 10 uM incubated for 48 hrs by sulforhodamine B assay; conditions: sk-mel-2, 48 h
RXF 393 = test: Cytotoxicity against human RXF393 cells assessed as effect on cell growth at 10 uM incubated for 48 hrs by sulforhodamine B assay; conditions: rxf 393, 48 h

Measured: Activity

O=C(NCc1ccccc1Cl)[C@@H]1CCC(=O)N1c1ccccc1
Non-Toxic: all assays above

O=C(NCc1ccc(Cl)cc1Cl)c1ccccn1
Non-Toxic: all assays above

O=C(NCc1ccc(Cl)cc1Cl)[C@@H]1CCC(=O)N1C(c1ccc(Cl)cc1)c1ccc(Cl)cc1
Non-Toxic: all assays above

O=C(NCc1ccccc1Cl)[C@@H]1CCC(=O)N1Cc1ccc(Cl)cc1
Non-Toxic: all assays above
